Reference: PMC3666196, “Formulation and Particle Size Reduction Improve Bioavailability of Poorly Water-Soluble Compounds with Antimalarial Activity” (Malaria Research and Treatment, 2013)
Values belong to the compound of their own block, whether it stands above or below them.

Tests used:
[1] = Particle size measurement by laser scattering (Horiba LA-950) and stability of suspensions stored at 4°C; assay type: physicochemical
Experimental: The particle size was measured using a Horiba LA-950 particle size distribution analyzer (Kyoto, Japan), based on laser scattering. This particular instrument has a measurement period of less than 2 minutes from introduction of sample to data presentation with a sample requirement for testing of 2–5 mg per measurement in a 150 mL flow cell, depending on the sample type. All DQ and WR2996666 preparations were measured at a range of transmittance between 80–90%. Various volumes ranging from 100 μL to 800 μL of samples with about 5–10 mg solid from each vial were tested in this instrument to determine the mean particle size, which was the particle size parameter referred in the results. In order to see the change of particle size of various preparations over time, an accelerated stability study of prepared micro- and nanosuspensions were carried out at a temperature of 4°C for a period of up to 3 weeks. Accurately weighed amounts of samples were placed into glass vials with aluminum-lined caps and stored in a microprocessor-controlled humidity chamber, and the samples were then characterized as a function of exposed time. The stability of particles shown in Tables 1 and 2 was some of the preparations evaluated in this study. Generally, the particles in aqueous suspension dosed in our animals were stable for at least 3 weeks.

[2] = parameters: method as in PMID 11000543; settings: formulated into various solid dispersions; cited from earlier work
[3] = parameters: method as in earlier work; settings: buffered water pH 4–9; cited from earlier work
[4] = HPLC check of drug integrity after formulation and HPH; assay type: physicochemical; settings: any of the preparations including microparticles and nanoparticles
Experimental: The rehydrated DQ nanoparticle formulations were evaluated by particle size measurement, determination of drug concentration in the whole suspension as well as in the fine particles less than […], and PK study in drug dosed animals. The particle size was monitored throughout the preparation procedure and before and after animal studies. To ensure that there was no change of the drug integrity in any of the formulation procedure, drug concentrations and chromatography profiles of the drug molecule identity were examined by an Agilent HPLC (Agilent Technologies, Foster City, CA) with an isocratic mobile phase of 20% water and 80% acetonitrile (0.1% formic acid contained in water and acetonitrile, resp.). All drug preparations in aqueous system were diluted in methanol with vigorous vortex and then in acetonitrile for HPLC analysis. This was done to obtain complete extraction of the compound prior to loading the samples to HPLC. To evaluate the amount of DQ in the fine particles, formulation suspensions were prepared in the amount of 10 mg/mL of DQ in water, incubated at 37°C for 2 hours and passed through a […] size filter. […] In order to determine the actual dosage of the drug for animal studies, the concentration of the drug used for dosing animals was determined by HPLC without prior particle size fractionation with filtration.

- Particle size ([1]; WR299666, HPH at 2500 bars in 6 homogenization cycles): 0.38–0.48 μm
- Particle size ([1]; WR299666 in water or HECT suspension, method Grinder, stored at 4°C, Week 1): 42.54 μm
- Particle size ([1]; WR299666 suspension, method Grinder, stored at 4°C, Mean of weeks 1-3): 42.22 μm
- Particle size ([1]; WR299666 suspension, method Grinder, stored at 4°C, Week 2): 41.07 μm
- Particle size ([1]; WR299666 suspension, method Grinder, stored at 4°C, Week 3): 43.05 μm
- Particle size ([1]; WR299666 suspension, method HG, stored at 4°C, Mean of weeks 1-3): 61.88 μm
- Particle size ([1]; WR299666 suspension, method HG, stored at 4°C, Week 1): 66.31 μm
- Particle size ([1]; WR299666 suspension, method HG, stored at 4°C, Week 2): 71.85 μm
- Particle size ([1]; WR299666 suspension, method HG, stored at 4°C, Week 3): 47.49 μm
- Particle size ([1]; WR299666 suspension, method HPH, stored at 4°C, Mean of weeks 1-3): 0.406 μm
- Particle size ([1]; WR299666 suspension, method HPH, stored at 4°C, Week 1): 0.376 μm
- Particle size ([1]; WR299666 suspension, method HPH, stored at 4°C, Week 2): 0.397 μm
- Particle size ([1]; WR299666 suspension, method HPH, stored at 4°C, Week 3): 0.445 μm
- Particle size ([1]; WR299666 suspension, method US, stored at 4°C, Mean of weeks 1-3): 1.5 μm
- Particle size ([1]; WR299666 suspension, method US, stored at 4°C, Mean of weeks 1-3, listed as W299666): 1.50 μm
- Particle size ([1]; WR299666 suspension, method US, stored at 4°C, Week 1): 1.52 μm
- Particle size ([1]; WR299666 suspension, method US, stored at 4°C, Week 2): 1.58 μm
- Particle size ([1]; WR299666 suspension, method US, stored at 4°C, Week 3): 1.41 μm
- Average particle size of starting raw material ([1]; without treatment): above 70 μm
Structure (SMILES): [H]/N=C(/N=C1NC(=O)C(=O)N1C)Nc1ccc(Cl)c(Cl)c1 [WR299666, (E)-1-(3,4-dichlorophenyl)-3-(1-methyl-4,5-dioxoimidazolidin-2-ylidene) guanidine]

Structure (SMILES): CCCCN(CCCC)CCC(O)c1cc2c(Cl)cc(Cl)cc2c2cc(C(F)(F)F)ccc12 (stereo not drawn) [halofantrine]
- Increase in absolute bioavailability [2]: five- to seven

- Particle size of generated nanoparticles ([1]; DQ formulation with poloxamer 407 as surfactant, after HPH): > 0.5 μm
- Particle size ([1]; DQ in water or HECT suspension, method HG (homogenizer with generator), stored at 4°C, Week 1): 99.23 μm
- Particle size ([1]; DQ suspension in HECT, method US (ultra-sonicator), stored at 4°C, Week 1): 36.62 μm
- Particle size ([1]; DQ suspension, method HG, stored at 4°C, Mean of weeks 1-3): 102.04 μm
- Particle size ([1]; DQ suspension, method HG, stored at 4°C, Week 2): 101.33 μm
- Particle size ([1]; DQ suspension, method HG, stored at 4°C, Week 3): 105.56 μm
- Particle size ([1]; DQ suspension, method US, stored at 4°C, Mean of weeks 1-3): 36.88 μm
- Particle size ([1]; DQ suspension, method US, stored at 4°C, Week 2): 36.97 μm
- Particle size ([1]; DQ suspension, method US, stored at 4°C, Week 3): 36.92 μm
- Particle size ([1]; DQ, method SD (solid dispersion) plus HPH, in water, stored at 4°C, Week 1): 0.401 μm
- Particle size ([1]; DQ, method SD plus HPH, stored at 4°C, Mean of weeks 1-3): 0.392 μm
- Particle size ([1]; DQ, method SD plus HPH, stored at 4°C, Week 2): 0.384 μm
- Particle size ([1]; DQ, method SD plus HPH, stored at 4°C, Week 3): 0.377 μm
- Particle size of DQ formulations ([1]; solid dispersion with polymers and surfactants, sonication followed by HPH at 1500–2500 bars, 120 homogenization cycles): 0.2–0.4 μm
- Chromatography profile (mass quantity, retention time) after formulation process and HPH [4]: no change in chromatography profile
Structure (SMILES): CCCCCCCCCCOc1cc2c(O)c(C(=O)OCC)cnc2cc1OCC [DQ, ethyl 6-decyloxy-7-ethoxy-4-hydroxy-3-quinolinecarboxylate, reference compound]
- Solubility in water [3]: < 0.01 µg/mL
